Experimental data: patent US20240041042A1, “1-(PYRIDYL)-5-AZINYLPYRAZOLE DERIVATIVES, AND THEIR USE FOR CONTROL OF UNDESIRED PLANT GROWTH” (Bayer Aktiengesellschaft, priority 2020, published 2024)
Read-outs that look alike come from different tables or passages of the source.

Assays:
Format in all cases: in vivo
[1] = system: Alopecurus myosuroides (ALOMY); assay: Pre-emergence herbicidal action against ALOMY; details: scored visually after about 3 weeks, 100% = plants have died
How it was run: (§1)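 Pre-emergence soil-surface spray, WP/EC formulation, 0.5% additive, 600 l/ha water, rates of 320 g/ha or lower. Greenhouse, ~3 wk. Visual score, % of untreated control (100% = plants dead, 0% = like control).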

[2] = system: Amaranthus retroflexus (AMARE); assay: Pre-emergence herbicidal action against AMARE; details: visual scoring after about 3 weeks vs untreated controls
How it was run: as §1

Avena fatua (AVEFA) [3] = assay: Pre-emergence herbicidal action against AVEFA; details: 320 g/ha, visual scoring after about 3 weeks vs untreated controls
How it was run: as §1

[4] = system: Echinochloa crus-galli (ECHCG); assay: Pre-emergence herbicidal action against ECHCG
How it was run: as §1

Lolium rigidum (LOLRI) [5] = assay: Pre-emergence herbicidal action against LOLRI
How it was run: as §1

[6] = system: Matricaria inodora (MATIN); assay: Pre-emergence herbicidal action against MATIN
How it was run: as §1

[7] = system: Pharbitis purpurea (PHBPU); assay: Pre-emergence herbicidal action against PHBPU; details: dosage 320 g/ha
How it was run: as §1

[8] = system: Polygonum convolvulus (POLCO); assay: Pre-emergence herbicidal action against POLCO
How it was run: as §1

Setaria viridis (SETVI) [9] = assay: Pre-emergence herbicidal action against SETVI
How it was run: as §1

[10] = system: Verconica persica (VERPE); assay: Pre-emergence herbicidal action against VERPE
How it was run: as §1

Viola tricolor (VIOTR) [11] = assay: Pre-emergence herbicidal action against VIOTR
How it was run: as §1

Oryza sativa (ORYSA) [12] = details: pre-emergence, 80 g/ha, crop plant compatibility, in comparison to untreated controls
How it was run: (§2)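 Crop injury rated visually in percent against untreated plants roughly 3 weeks after treatment (0% no effect, 100% plants dead). Compounds, as WP or EC with 0.5% additive in 600 l/ha water, were applied to the covering soil right after sowing; greenhouse growth. Suffixes a, b, c denote different dosages.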

[13] = system: Abutilon theophrasti (ABUTH); assay: Post-emergence herbicidal action against ABUTH; details: visual rating about 3 weeks after treatment vs untreated controls (100% = plants have died, 0% = like control plants)
How it was run: (§3)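 Post-emergence greenhouse spray, one-leaf stage, 600 l/ha water plus 0.5% additive; WP or EC formulations; application rates 320 g/ha or lower. Visual % damage vs untreated controls at ~3 weeks.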

[14] = system: Alopecurus myosuroides (ALOMY); assay: Post-emergence herbicidal action against ALOMY; details: visual rating about 3 weeks after treatment vs untreated controls (100% = plants have died, 0% = like control plants)
How it was run: as §3

[15] = system: Amaranthus retroflexus (AMARE); assay: Post-emergence herbicidal action against AMARE
How it was run: as §3

Avena fatua (AVEFA) [16] = assay: Post-emergence herbicidal action against AVEFA; details: visual rating about 3 weeks after treatment
How it was run: as §3

[17] = system: Echinochloa crus-galli (ECHCG); assay: Post-emergence herbicidal action against ECHCG
How it was run: as §3

Lolium rigidum (LOLRI) [18] = assay: Post-emergence herbicidal action against LOLRI
How it was run: as §3

[19] = system: Matricaria inodora (MATIN); assay: Post-emergence herbicidal action against MATIN; details: dosage 80 g/ha
How it was run: as §3

Setaria viridis (SETVI) [20] = assay: Post-emergence herbicidal action against SETVI
How it was run: as §3

[21] = system: Verconica persica (VERPE); assay: Post-emergence herbicidal action against VERPE
How it was run: as §3

Viola tricolor (VIOTR) [22] = assay: Post-emergence herbicidal action against VIOTR
How it was run: as §3

Oryza sativa (ORYSA) [23] = details: crop plant compatibility
How it was run: (§4)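 Greenhouse crops in sandy loam sprayed post-emergence at the one-leaf stage, 2–3 weeks after sowing, with WP or EC formulations in water plus 0.5% additive at 600 l/ha. Damage rated visually about 3 weeks later versus untreated controls (0% = like control, 100% = dead); suffixes a–c denote different doses.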

Zea mays (ZEAMX) [24] = system: Zea mays (ZEAMX)
How it was run: as §4

Zea mays (ZEAMX) [25] = details: pre-emergence, 80 g/ha, crop plant compatibility, in comparison to untreated controls
How it was run: as §2

[26] = system: Pharbitis purpurea (PHBPU); assay: Post-emergence herbicidal action against PHBPU
How it was run: as §3

[27] = system: Polygonum convolvulus (POLCO); assay: Post-emergence herbicidal action against POLCO; details: dosage 320 g/ha
How it was run: as §3

[28] = 80 g/ha, visual rating about 3 weeks after treatment vs untreated controls (100% = plants have died, 0% = like control plants)
[29] = 80 g/ha, effect in comparison to untreated controls
[30] = 320 g/ha, visual rating about 3 weeks after treatment

| SMILES | Pre-emergence action against ALOMY ([1]; 80 g/ha) | Pre-emergence action against ALOMY ([1]; 320 g/ha) | Pre-emergence action against AMARE in % ([2]; 80 g/ha) | Pre-emergence action against AMARE in % ([2]; 320 g/ha) | Pre-emergence action against AVEFA in % (Avena fatua (AVEFA) [3]) | Pre-emergence action against ECHCG in % ([4]; dosage 80 g/ha) | Pre-emergence action against ECHCG in % ([4]; dosage 320 g/ha) | Pre-emergence action against LOLRI in % (Lolium rigidum (LOLRI) [5]; dosage 80 g/ha) | Pre-emergence action against LOLRI in % (Lolium rigidum (LOLRI) [5]; dosage 320 g/ha) | Pre-emergence action against MATIN in % ([6]; dosage 320 g/ha) | Pre-emergence action against PHBPU in % [7] | Pre-emergence action against POLCO in % ([8]; dosage 320 g/ha) | Pre-emergence action against SETVI in % (Setaria viridis (SETVI) [9]; dosage 320 g/ha) | Pre-emergence action against VERPE in % ([10]; dosage 320 g/ha) | Pre-emergence action against VIOTR in % (Viola tricolor (VIOTR) [11]; 320 g/ha, Viola tricolor) | Pre-emergence action against VIOTR in % (Viola tricolor (VIOTR) [11]; dosage 80 g/ha) | Pre-emergence action against ORYSA in % (Oryza sativa (ORYSA) [12]) | Post-emergence action against ALOMY in % ([14]; 80 g/ha) | Post-emergence action against ECHCG in % ([17]; dosage 80 g/ha) | Post-emergence action against ORYSA in % (Oryza sativa (ORYSA) [23]; [29]) | other results |
| --- | --- | --- | --- | --- | --- | --- | --- | --- | --- | --- | --- | --- | --- | --- | --- | --- | --- | --- | --- | --- | --- |
| COCCOC(=O)[C@@H](C)Oc1nn(-c2ncccc2F)c(-c2ccc(F)nc2)c1Br [Example I-35] | 90% | 100% | 100% | 100% | 100% | 90% | 100% | 90% | 100% | 100% | 90% | 90% | 100% | 100% | 100% | 100% | 20% | 90% | 90% | 0% | Pre-emergence action against SETVI in % (Setaria viridis (SETVI) [9]; dosage 80 g/ha): 100%; Post-emergence action against ABUTH in % ([13]; 80 g/ha): 90%; Post-emergence action against AMARE in % [15, 28]: 100%; Post-emergence action against AVEFA in % (Avena fatua (AVEFA) [16]; 80 g/ha): 100%; Post-emergence action against LOLRI in % (Lolium rigidum (LOLRI) [18]; dosage 80 g/ha): 90%; Post-emergence action against MATIN in % [19]: 90%; Post-emergence action against SETVI in % (Setaria viridis (SETVI) [20]; dosage 80 g/ha): 100%; Post-emergence action against VERPE in % ([21]; dosage 80 g/ha): 100%; Post-emergence action against VIOTR in % (Viola tricolor (VIOTR) [22]; 80 g/ha): 90%; Post-emergence action against ORYSA in % (Oryza sativa (ORYSA) [23]; 20 g/ha, effect vs untreated controls): 0%; Post-emergence action against ZEAMX in % (crop plant compatibility) (Zea mays (ZEAMX) [24]; 20 g/ha, ZEAMX, effect in comparison to untreated controls): 10%; Post-emergence action against ZEAMX in % (Zea mays (ZEAMX) [24]; crop plant compatibility, 80 g/ha, effect vs untreated controls): 10% |
| CCOC(=O)CSc1nn(-c2ccccn2)c(-c2cncc(F)c2)c1I [Example I-152] | – | 80% | – | 100% | – | – | 90% | – | – | 90% | – | – | 90% | – | 90% | 80% | 20% | – | 80% | 0% | Pre-emergence action against ZEAMX in % (Zea mays (ZEAMX) [25]): 10%; Post-emergence action against ABUTH in % ([13]; 320 g/ha): 80%; Post-emergence action against ALOMY in % ([14]; 320 g/ha): 80%; Post-emergence action against AMARE in % [15, 28]: 80%; Post-emergence action against AMARE in % [15, 30]: 80%; Post-emergence action against ECHCG in % ([17]; dosage 320 g/ha): 80%; Post-emergence action against PHBPU in % ([26]; dosage 80 g/ha): 80%; Post-emergence action against PHBPU in % ([26]; dosage 320 g/ha): 90%; Post-emergence action against POLCO in % [27]: 80%; Post-emergence action against SETVI in % (Setaria viridis (SETVI) [20]; dosage 80 g/ha): 80%; Post-emergence action against SETVI in % (Setaria viridis (SETVI) [20]; dosage 320 g/ha): 80%; Post-emergence action against VERPE in % ([21]; 320 g/ha, VERPE): 80% |
| CCOC(=O)[C@@H](C)Oc1nn(-c2nc(F)ccc2F)c(-c2ccc(F)nc2)c1Br [Example I-336] | 80% | 100% | 90% | 100% | 90% | 80% | 100% | 80% | 100% | 90% | 80% | 90% | 100% | 90% | 100% | 90% | 20% | 90% | 80% | 20% | Pre-emergence action against MATIN in % ([6]; dosage 80 g/ha): 80%; Pre-emergence action against POLCO in % ([8]; dosage 80 g/ha): 80%; Pre-emergence action against VERPE in % ([10]; dosage 80 g/ha): 80%; Post-emergence action against ABUTH in % ([13]; 320 g/ha): 80%; Post-emergence action against ALOMY in % ([14]; 320 g/ha): 90%; Post-emergence action against AMARE in % [15, 30]: 80%; Post-emergence action against AVEFA in % (Avena fatua (AVEFA) [16]; 80 g/ha): 80%; Post-emergence action against AVEFA in % (Avena fatua (AVEFA) [16]; 320 g/ha): 90%; Post-emergence action against ECHCG in % ([17]; dosage 320 g/ha): 80%; Post-emergence action against LOLRI in % (Lolium rigidum (LOLRI) [18]; dosage 80 g/ha): 80%; Post-emergence action against LOLRI in % (Lolium rigidum (LOLRI) [18]; dosage 320 g/ha): 80%; Post-emergence action against PHBPU in % ([26]; dosage 80 g/ha): 90%; Post-emergence action against PHBPU in % ([26]; dosage 320 g/ha): 100%; Post-emergence action against POLCO in % [27]: 80%; Post-emergence action against SETVI in % (Setaria viridis (SETVI) [20]; dosage 320 g/ha): 80%; Post-emergence action against VERPE in % ([21]; 320 g/ha, VERPE): 90%; Post-emergence action against VERPE in % ([21]; dosage 80 g/ha): 80%; Post-emergence action against VIOTR in % (Viola tricolor (VIOTR) [22]; 320 g/ha): 80% |
